{"source": "patent US20080070846A1", "about": "“TREATING ACUTE EXACERBATIONS OF ASTHMA USING A KETOLIDE” (Aventis Pharmaceuticals Inc, priority 2004, published 2008)", "key": {"[1]": {"tested_on": "asthmatic patients", "conditions": "cited from earlier work"}, "[2]": {"tested_on": "adults following an acute asthma exacerbation", "conditions": "oral prednisone, over seven to ten days; cited from earlier work"}, "[3]": {"tested_on": "adult patients with acute asthma", "conditions": "after seven to ten days of oral prednisone; cited from earlier work"}, "[4]": {"tested_on": "adults with mild asthma exacerbations", "conditions": "after 16 days of tapering oral prednisone; from 73% at onset of treatment; cited from earlier work"}, "[5]": {"tested_on": "children with an acute exacerbation of asthma", "conditions": "oral prednisone, after 7 days; pediatric, mean age 8.0 years; cited from earlier work"}, "[6]": {"tested_on": "patients with acute exacerbations of asthma", "assay": "Tolerability and safety assessment (adverse-event recording)", "format": "in vivo, human", "method": "Clinical safety is assessed in all patients by adverse-event recording and standard monitoring. Patients who receive at least one dose of […] and at least one safety assessment during treatment are considered evaluable for safety. All spontaneously reported adverse events and those identified by investigator observation are recorded and evaluated in terms of severity and causality."}, "[7]": {"tested_on": "patients with acute exacerbations of asthma", "assay": "Asthma diary symptom scores in double-blind, randomized, placebo-controlled study", "format": "in vivo, human", "method": "(§1) Patients are centrally randomized (1:1) using computer-generated codes to receive blinded treatment with either oral telithromycin 800 mg once daily (two 400 mg capsules) or placebo (two capsules identical to those containing active treatment) for ten days using a proprietary Interactive Voice Recognition System to balance the treatment assignments within each study center. The first clinic visit (Visit 1), occurring within 24 hours of initial presentation is considered to be the study baseline. At baseline, patients are randomized to telithromycin or placebo. Telephone contact is made at 24-72 hours post-randomization to review concomitant medications taken and adverse events. Visit 2 is at the end of treatment (Days 11-14), Visit 3 is a post-treatment visit (Day 28 [±3 days]), and Visit 4 is the final visit (Day 42 [±3 days]). At each visit, patients undergo respiratory examinations, pulmonary function tests, health outcome assessments, and have a review of adverse events. Vital signs and concomitant medications are also recorded. Spontaneous or induced sputum samples nasopharyngeal swabs, and serum for serology for atypical pathogens are collected at Visits 1 and 3. Patients receiving at least one dose of study treatment and having one primary efficacy endpoint value are included in the intention to treat (ITT) population.\n(§2) Asthma symptoms are measured using a modified version of a previously published diary card symptom score in which patients rate the frequency and severity of symptoms on a 7-point Likert scale. [see Santanello N. C., Barber B. L., Reiss T. F, Friedman B. S., Juniper E. F., Zhang J., Measurement Characteristics of Two Asthma Symptom Diary Scales for Use in Clinical Trials. Eur. Respir. J. 1997; 10:646-651]. Daily patient diaries are also used to record asthma symptoms, study treatment dosing, albuterol use, and other concomitant medications. Patient's home PEF values are also recorded in triplicate twice daily.\n(§3) Efficacy endpoints are analyzed using an analysis of covariance (ANCOVA) model using factors for treatment, study center (investigator), treatment-by-center interaction, and baseline as covariates. Longitudinal analyses are based on the average over the 6-week study period. The treatment group means and the between-group differences are estimated using the ANCOVA model and between-group tests are used to compare telithromycin with placebo. The primary efficacy assessment time point is Visit 2 (end of treatment; Days 11-14).\nImprovements in asthma symptoms assessed by the patients during the ten days of study treatment are analyzed using analysis of variance (ANOVA)/ANCOVA. Time to 50% reduction of asthma symptoms is summarized for treatment groups using a Kaplan-Meier procedure."}, "[8]": {"tested_on": "C. pneumoniae", "conditions": "mice with acute C. pneumoniae infection; cited from earlier work"}, "[9]": {"tested_on": "patients with acute exacerbations of asthma", "assay": "Morning home PEF recorded on diary cards", "format": "in vivo, human", "conditions": "patient-recorded; placebo 66.8 L/min", "method": "as §2"}, "[10]": {"tested_on": "patients with acute exacerbations of asthma", "assay": "In-clinic pulmonary function tests (PEF, FEV1, FVC, FEF25-75%)", "format": "in vivo, human", "method": "as §1\nPEF in liter/min, FEV1 in liters, FVC in liters, and FEF25-75% in liters/sec are recorded at clinic visits and are performed according to American Thoracic Society (ATS) standards. [see American Thoracic Society. Standardization of Spirometry. Am. J. Respir. Crit. Care Med. 1995; 152: 1107-1136].\nas §3\nIn the models used, treatment effect is estimated while adjusting for the factor of center and for baseline values as covariates. This adjusted model accounts for the difference in the number of patients enrolled at each center. All mean data for efficacy outcomes are presented as least square (LS) means as they result from this adjusted model."}}, "data": [{"compound": "CC[C@H]1OC(=O)[C@H](C)[C@@H](O[C@H]2C[C@@](C)(OC)[C@@H](O)[C@H](C)O2)[C@H](C)[C@@H](O[C@@H]2O[C@H](C)C[C@H](N(C)C)[C@H]2O)[C@](C)(OC)C[C@@H](C)C(=O)[C@H](C)[C@@H](O)[C@]1(C)O", "note": "[clarithromycin]", "values": [{"measurement": "severity of bronchial hyperresponsiveness", "setting": "[1]", "value": "reduce the severity of bronchial hyperresponsiveness"}]}, {"compound": "C[C@]12C=CC(=O)C=C1CC[C@@H]1[C@@H]2C(=O)C[C@@]2(C)[C@H]1CC[C@]2(O)C(=O)CO", "note": "[prednisone]", "values": [{"measurement": "FEV1 increase, measured after bronchodilator use", "setting": "[2]", "value": 0.55, "unit": "L"}, {"measurement": "PEF increase, measured after bronchodilator use", "setting": "[2]", "value": 77, "unit": "L/min"}, {"measurement": "PEF improvement", "setting": "[3]", "value": 46, "unit": "L/min"}, {"measurement": "PEF % predicted after treatment", "setting": "[4]", "value": 85, "unit": "%"}, {"measurement": "mean increase in FEF25-75%", "setting": "[5]", "value": 0.41, "unit": "L/s"}, {"measurement": "mean increase in FEV1", "setting": "[5]", "value": 0.37, "unit": "L"}, {"measurement": "mean increase in FVC", "setting": "[5]", "value": 0.45, "unit": "L"}, {"measurement": "mean increase in PEF", "setting": "[5]", "value": 78, "unit": "L/min"}]}, {"compound": "CC[C@H]1OC(=O)[C@H](C)C(=O)[C@H](C)[C@@H](O[C@@H]2O[C@H](C)C[C@H](N(C)C)[C@H]2O)[C@](C)(OC)C[C@@H](C)C(=O)[C@H](C)[C@H]2N(CCCCn3cnc(-c4cccnc4)c3)C(=O)O[C@]12C", "note": "[telithromycin]", "values": [{"measurement": "tolerability", "setting": "[6]; 800 mg once daily for ten days", "value": "well tolerated"}, {"measurement": "TEAEs considered possibly related to treatment, % of patients", "setting": "[6]; 132 patients evaluable for safety", "value": 20.5, "unit": "%"}, {"measurement": "frequency of TEAEs", "setting": "[6]; 132 patients evaluable for safety, placebo 39.7%", "value": 38.6, "unit": "%"}, {"measurement": "diarrhea possibly related to treatment", "setting": "[6]; placebo 3.8%", "value": 9.8, "unit": "%"}, {"measurement": "median time to a 50% reduction in symptoms", "setting": "[7]; Kaplan-Meier, placebo 8 days, P=0.031", "value": 5, "unit": "days"}, {"measurement": "mean change in symptom score from baseline over the study period", "setting": "[7]; entire 6-week observation period, 800 mg once daily for ten days", "value": "−51", "unit": "%"}, {"measurement": "mean percent reduction in symptom severity from baseline to the end of treatment", "setting": "[7]; oral 800 mg once daily for ten days, added to usual care, ITT N=126", "value": "−51", "unit": "%"}, {"measurement": "proportion of patients with symptom-free days during the treatment period", "setting": "[7]; placebo 8%, P=0.006", "value": 16, "unit": "%"}, {"measurement": "mean difference between treatments in change in symptom score over the study period", "setting": "[7]; telithromycin vs placebo, 6-week period, 95% CI −24.75, −0.89%, P=0.035", "value": "−13", "unit": "%"}, {"measurement": "mean difference between treatments in percent reduction in symptom severity, baseline to end of treatment", "setting": "[7]; telithromycin vs placebo, 95% CI −36.64, −7.90%, P=0.003", "value": "−22", "unit": "%"}, {"measurement": "culture and PCR positivity in the lungs", "setting": "[8]", "value": "reduce culture and PCR positivity"}, {"measurement": "improvement in morning home PEF from baseline over the treatment period (mean)", "setting": "[9]", "value": 78.3, "unit": "L/min"}, {"measurement": "Mean change from baseline to end of treatment, FEF25-75%", "setting": "[10]; 800 mg/day for ten days, N=126", "value": 0.85, "unit": "L/s"}, {"measurement": "Mean change from baseline to end of treatment, FVC", "setting": "[10]; 800 mg/day for ten days, N=126", "value": 0.58, "unit": "L"}, {"measurement": "Mean change from baseline to end of treatment, FEV1", "setting": "[10]; 800 mg/day for ten days, N=126, LS mean, Visit 2", "value": 0.63, "unit": "L"}, {"measurement": "Mean change from baseline to end of treatment, PEF", "setting": "[10]; 800 mg/day for ten days, N=126, in-clinic", "value": 115.8, "unit": "L/min"}, {"measurement": "mean improvement in FEV1, subgroup with infection at baseline", "setting": "[10]; C. pneumoniae and/or M. pneumoniae infection at baseline, 61 telithromycin patients", "value": 0.67, "unit": "L"}, {"measurement": "mean improvement in FEV1, subgroup without evidence of infection", "setting": "[10]; no evidence of C. pneumoniae/M. pneumoniae infection, 44 telithromycin patients", "value": 0.65, "unit": "L"}, {"measurement": "difference between treatments in FEV1 improvement, subgroup with infection at baseline", "setting": "[10]; telithromycin vs placebo, 95% CI 0.11, 0.47 L, P=0.002", "value": 0.29, "unit": "L"}, {"measurement": "difference between treatments in FEV1 improvement, subgroup without evidence of infection", "setting": "[10]; telithromycin vs placebo, 95% CI −0.17, 0.52 L, P=0.309", "value": 0.18, "unit": "L"}, {"measurement": "Difference between treatments in mean change, FEV1", "setting": "[10]; telithromycin vs placebo, P=0.001", "value": 0.29, "unit": "L"}, {"measurement": "Difference between treatments in mean change, FEF25-75%", "setting": "[10]; telithromycin vs placebo, P=0.004", "value": 0.40, "unit": "L/s"}, {"measurement": "Difference between treatments in mean change, FVC", "setting": "[10]; telithromycin vs placebo, P=0.006", "value": 0.27, "unit": "L"}, {"measurement": "Difference between treatments in mean change, PEF", "setting": "[10]; telithromycin vs placebo, P=0.036", "value": 26.9, "unit": "L/min"}]}]}
